Assay results taken from US20140113898A1, “BISARYLSULFONE AND DIALKYLARYLSULFONE COMPOUNDS AS CALCIUM CHANNEL BLOCKERS” (Zalicus Pharmaceuticals Ltd., priority 2010, published 2014).

Target: T1, CaV2.2 (Homo sapiens, UniProt Q00975)
T1 construct: expressed in transfected cells; host or cells: unnamed doxycycline-inducible cell line
Assay: High-throughput CaV2.2/Kir2.3 FLIPR fluorescent assay
Format: cell-based
Conditions: Table 4; Fluo-4 FLIPR; closed or inactivated state not stated; read-out: FLIPR data CaV2.2
Procedure, shortened: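 Doxycycline-induced cells moved to 29 °C on assay day and were loaded with 4.4 μM Fluo-4. They were held in 2 mM KCl (closed state) or 12.5 mM KCl (inactivated state) buffer, pH 7.4, then depolarized with 130 mM KCl. Fluorescence was read 3 min on FLIPR, and IC50 was obtained from logistic fits.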

T1 sequence (Q00975 whole entry): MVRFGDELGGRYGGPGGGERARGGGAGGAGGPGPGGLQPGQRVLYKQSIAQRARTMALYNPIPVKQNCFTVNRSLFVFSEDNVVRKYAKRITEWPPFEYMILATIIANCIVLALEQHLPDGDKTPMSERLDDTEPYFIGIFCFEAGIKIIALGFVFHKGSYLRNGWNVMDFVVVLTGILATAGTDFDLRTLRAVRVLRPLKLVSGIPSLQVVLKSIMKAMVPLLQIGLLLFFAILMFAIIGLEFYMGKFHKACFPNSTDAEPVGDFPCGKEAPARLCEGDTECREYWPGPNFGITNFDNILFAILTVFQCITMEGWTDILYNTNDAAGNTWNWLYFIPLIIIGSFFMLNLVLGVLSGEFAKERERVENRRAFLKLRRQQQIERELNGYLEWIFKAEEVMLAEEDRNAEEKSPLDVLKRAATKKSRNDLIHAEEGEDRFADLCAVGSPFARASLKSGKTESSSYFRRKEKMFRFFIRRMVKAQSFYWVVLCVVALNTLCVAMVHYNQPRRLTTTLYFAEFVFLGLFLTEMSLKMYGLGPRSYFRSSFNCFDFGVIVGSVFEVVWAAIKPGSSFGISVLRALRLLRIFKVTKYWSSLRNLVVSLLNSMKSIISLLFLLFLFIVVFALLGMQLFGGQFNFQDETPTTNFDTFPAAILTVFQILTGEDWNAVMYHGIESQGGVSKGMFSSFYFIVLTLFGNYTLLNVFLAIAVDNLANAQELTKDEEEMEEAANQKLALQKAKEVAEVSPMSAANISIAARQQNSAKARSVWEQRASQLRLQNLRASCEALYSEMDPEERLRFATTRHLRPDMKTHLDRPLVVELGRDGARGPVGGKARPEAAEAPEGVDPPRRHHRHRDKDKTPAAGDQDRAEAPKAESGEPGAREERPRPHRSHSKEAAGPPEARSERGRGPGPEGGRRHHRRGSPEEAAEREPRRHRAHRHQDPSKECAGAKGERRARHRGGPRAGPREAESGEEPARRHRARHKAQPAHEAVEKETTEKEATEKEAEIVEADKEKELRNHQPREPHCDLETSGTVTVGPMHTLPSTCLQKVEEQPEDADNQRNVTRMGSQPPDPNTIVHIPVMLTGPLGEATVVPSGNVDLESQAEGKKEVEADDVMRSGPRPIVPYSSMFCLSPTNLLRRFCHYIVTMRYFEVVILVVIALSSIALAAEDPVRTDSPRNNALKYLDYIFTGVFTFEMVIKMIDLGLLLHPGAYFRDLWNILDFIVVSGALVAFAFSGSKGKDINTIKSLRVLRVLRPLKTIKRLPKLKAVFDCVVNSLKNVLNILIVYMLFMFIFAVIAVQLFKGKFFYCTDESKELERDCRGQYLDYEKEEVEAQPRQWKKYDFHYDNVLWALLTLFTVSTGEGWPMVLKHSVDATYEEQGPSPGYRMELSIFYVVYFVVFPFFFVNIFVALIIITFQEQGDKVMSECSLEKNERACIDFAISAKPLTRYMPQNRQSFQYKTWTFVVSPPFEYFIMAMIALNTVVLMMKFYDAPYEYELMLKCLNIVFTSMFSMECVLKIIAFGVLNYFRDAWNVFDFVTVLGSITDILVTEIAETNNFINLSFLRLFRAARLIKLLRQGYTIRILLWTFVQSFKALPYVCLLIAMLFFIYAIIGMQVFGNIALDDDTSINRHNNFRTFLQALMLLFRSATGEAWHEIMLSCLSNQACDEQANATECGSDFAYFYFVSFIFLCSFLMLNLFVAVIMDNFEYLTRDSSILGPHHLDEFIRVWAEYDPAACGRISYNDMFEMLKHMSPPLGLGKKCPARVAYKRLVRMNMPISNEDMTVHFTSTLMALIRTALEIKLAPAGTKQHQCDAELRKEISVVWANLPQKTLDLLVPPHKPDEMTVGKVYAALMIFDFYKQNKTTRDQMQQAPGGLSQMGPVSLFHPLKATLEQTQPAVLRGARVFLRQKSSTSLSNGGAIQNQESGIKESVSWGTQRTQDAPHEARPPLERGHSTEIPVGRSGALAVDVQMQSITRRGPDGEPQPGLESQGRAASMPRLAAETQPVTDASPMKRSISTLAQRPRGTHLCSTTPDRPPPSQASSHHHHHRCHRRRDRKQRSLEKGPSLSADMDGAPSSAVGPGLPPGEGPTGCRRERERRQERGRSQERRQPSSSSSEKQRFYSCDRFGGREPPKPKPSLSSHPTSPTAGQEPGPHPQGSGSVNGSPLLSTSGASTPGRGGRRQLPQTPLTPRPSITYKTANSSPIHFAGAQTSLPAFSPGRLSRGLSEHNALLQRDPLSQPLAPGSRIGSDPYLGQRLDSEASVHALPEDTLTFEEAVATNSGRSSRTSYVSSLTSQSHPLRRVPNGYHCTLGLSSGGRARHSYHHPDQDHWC
T1 sequence (P54284 whole entry partner): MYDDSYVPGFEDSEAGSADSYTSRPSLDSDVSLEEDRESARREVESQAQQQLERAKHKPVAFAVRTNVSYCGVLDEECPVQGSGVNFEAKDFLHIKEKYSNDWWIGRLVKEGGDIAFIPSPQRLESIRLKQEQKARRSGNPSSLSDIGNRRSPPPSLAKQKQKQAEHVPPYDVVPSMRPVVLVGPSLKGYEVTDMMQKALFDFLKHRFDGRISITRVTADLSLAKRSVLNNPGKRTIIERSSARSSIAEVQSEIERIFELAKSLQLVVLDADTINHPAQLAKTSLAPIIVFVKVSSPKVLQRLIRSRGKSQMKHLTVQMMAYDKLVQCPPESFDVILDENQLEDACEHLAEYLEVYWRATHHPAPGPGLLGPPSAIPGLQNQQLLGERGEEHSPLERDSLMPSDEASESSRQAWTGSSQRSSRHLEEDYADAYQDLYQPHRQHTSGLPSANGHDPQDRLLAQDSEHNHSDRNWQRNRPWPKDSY
T1 sequence (P54289 25-946 partner limits assumed): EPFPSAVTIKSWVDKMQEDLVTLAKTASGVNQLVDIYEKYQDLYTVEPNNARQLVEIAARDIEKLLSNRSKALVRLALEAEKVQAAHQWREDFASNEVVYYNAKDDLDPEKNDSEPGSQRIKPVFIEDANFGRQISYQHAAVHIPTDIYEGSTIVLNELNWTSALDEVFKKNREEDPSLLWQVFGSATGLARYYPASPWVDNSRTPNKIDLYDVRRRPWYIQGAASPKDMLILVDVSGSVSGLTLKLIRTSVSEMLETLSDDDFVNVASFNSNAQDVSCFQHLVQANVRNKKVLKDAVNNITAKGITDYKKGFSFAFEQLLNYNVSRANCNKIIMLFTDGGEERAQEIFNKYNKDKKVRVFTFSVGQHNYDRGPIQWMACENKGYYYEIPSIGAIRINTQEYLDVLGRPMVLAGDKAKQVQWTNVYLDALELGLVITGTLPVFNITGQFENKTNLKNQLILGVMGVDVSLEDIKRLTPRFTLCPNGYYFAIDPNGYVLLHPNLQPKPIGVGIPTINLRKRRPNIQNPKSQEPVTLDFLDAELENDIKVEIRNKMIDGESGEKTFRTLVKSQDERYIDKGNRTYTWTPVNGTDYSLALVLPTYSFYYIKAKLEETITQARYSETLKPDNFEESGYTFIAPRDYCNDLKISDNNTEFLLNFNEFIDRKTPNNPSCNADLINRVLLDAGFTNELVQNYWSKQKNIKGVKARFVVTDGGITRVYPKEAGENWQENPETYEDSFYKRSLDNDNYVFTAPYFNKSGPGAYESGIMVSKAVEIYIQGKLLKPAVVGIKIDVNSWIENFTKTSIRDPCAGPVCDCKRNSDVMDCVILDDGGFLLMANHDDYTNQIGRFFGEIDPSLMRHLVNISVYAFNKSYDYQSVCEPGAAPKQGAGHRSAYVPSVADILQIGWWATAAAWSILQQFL
T1 sequence (P54289 947-1103 partner limits assumed): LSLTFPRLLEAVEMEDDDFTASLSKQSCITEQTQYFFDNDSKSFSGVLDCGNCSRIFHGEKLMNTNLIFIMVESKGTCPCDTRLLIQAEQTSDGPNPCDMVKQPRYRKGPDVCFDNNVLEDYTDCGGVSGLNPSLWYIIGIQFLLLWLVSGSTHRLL

SMILES | IC50 [nM]
O=C(NCc1ccccc1S(=O)(=O)c1cccc(C(F)(F)F)c1)c1cn2cc(C(F)(F)F)ccc2n1 [Compound 51, 6-(trifluoromethyl)-N-(2-((3-(trifluoromethyl)phenyl)sulfonyl)benzyl)imidazo[1,2-a]pyridine-2-carboxamide] | 1230
O=C(NCc1ccc(S(=O)(=O)c2cccc(C(F)(F)F)c2)cn1)[C@H]1C[C@@H](O)CN1 [Compound 106, (2R,4R)-4-hydroxy-N-((5-((3-(trifluoromethyl)phenyl)sulfonyl)pyridin-2-yl)methyl)pyrrolidine-2-carboxamide] | 5850
CN1CCCCC1C(=O)NCc1ccc(S(=O)(=O)c2cccc(C(F)(F)F)c2)cc1 (stereo not drawn) [Compound 84, 1-methyl-N-(4-((3-(trifluoromethyl)phenyl)sulfonyl)benzyl)piperidine-2-carboxamide] | 2280
NC1(C(=O)NCc2ccc(S(=O)(=O)c3cccc(C(F)(F)F)c3)cc2)CCOCC1 [Compound 60, 4-amino-N-(4-((3-(trifluoromethyl)phenyl)sulfonyl)benzyl)tetrahydro-2H-pyran-4-carboxamide] | 4230
O=C(NCc1ccccc1S(=O)(=O)c1cccc(C(F)(F)F)c1)c1ccc(C(F)(F)F)nc1 [Compound 38] | 1120
O=C(NCc1ccccc1S(=O)(=O)c1cccc(C(F)(F)F)c1)[C@@H]1CCCN1 [Compound 76, (S)-N-(2-((3-(trifluoromethyl)phenyl)sulfonyl)benzyl)pyrrolidine-2-carboxamide] | 5540
O=C(NCc1ccccc1S(=O)(=O)c1cccc(C(F)(F)F)c1)c1ccnn1CC(F)(F)F [Compound 48, 1-(2,2,2-trifluoroethyl)-N-(2-((3-(trifluoromethyl)phenyl)sulfonyl)benzyl)-1H-pyrazole-5-carboxamide] | 1650
O=C(NCc1ccccc1S(=O)(=O)c1cccc(C(F)(F)F)c1)c1cnc(C(F)(F)F)nc1 [Compound 45, 2-(trifluoromethyl)-N-(2-((3-(trifluoromethyl)phenyl)sulfonyl)benzyl)pyrimidine-5-carboxamide] | 1110
O=C(NCc1ccc(S(=O)(=O)c2cccc(C(F)(F)F)c2)cc1)[C@@H]1CCCN1 [Compound 73, (S)-N-(4-((3-(trifluoromethyl)phenyl)sulfonyl)benzyl)pyrrolidine-2-carboxamide] | 1920
CO[C@H]1CN[C@@H](C(=O)NCc2ccc(S(=O)(=O)c3cccc(C(F)(F)F)c3)cc2)C1 [Compound 62, (2R,4R)-4-methoxy-N-(4-((3-(trifluoromethyl)phenyl)sulfonyl)benzyl)pyrrolidine-2-carboxamide] | 620
O=C(NCc1ccccc1S(=O)(=O)c1cccc(C(F)(F)F)c1)c1ccnc(C(F)(F)F)c1 [Compound 50, 2-(trifluoromethyl)-N-(2-((3-(trifluoromethyl)phenyl)sulfonyl)benzyl)isonicotinamide] | 1210
O=C(NCc1ccc(S(=O)(=O)c2cccc(C(F)(F)F)c2)cc1)[C@@H]1C[C@H](F)CN1 [Compound 70, (2S,4S)-4-fluoro-N-(4-((3-(trifluoromethyl)phenyl)sulfonyl)benzyl)pyrrolidine-2-carboxamide] | 4740

Same assay, conditions: Table 5; Fluo-4 FLIPR; closed or inactivated state not stated; read-out: FLIPR data CaV2.2

SMILES | IC50 [nM]
CC(C)(C(=O)NCc1cccnc1Oc1ccc(F)cc1)S(=O)(=O)c1cccc(C(F)(F)F)c1 [Compound 146, N-((2-(4-fluorophenoxy)pyridin-3-yl)methyl)-2-methyl-2-((3-(trifluoromethyl)phenyl)sulfonyl)propanamide] | 440
CC(C)(NC(=O)C(C)(C)S(=O)(=O)c1cccc(C(F)(F)F)c1)c1ccccc1 [Compound 126, 2-methyl-N-(2-phenylpropan-2-yl)-2-((3-(trifluoromethyl)phenyl)sulfonyl)propanamide] | 4310
CC(C)(C(=O)NCC(O)c1ccccc1Cl)S(=O)(=O)c1cccc(C(F)(F)F)c1 (stereo not drawn) [Compound 141, N-(2-(2-chlorophenyl)-2-hydroxyethyl)-2-methyl-2-((3-(trifluoromethyl)phenyl)sulfonyl)propanamide] | 1090
CC(C)(CCNC(=O)[C@H]1CCCCN1)S(=O)(=O)c1cccc(C(F)(F)F)c1 [Compound 195, (R)-N-(3-methyl-3-((3-(trifluoromethyl)phenyl)sulfonyl)butyl)piperidine-2-carboxamide] | 3110
Cc1cc(C(=O)NCC(C)(C)S(=O)(=O)c2cccc(C(F)(F)F)c2)cc(C)c1O [Compound 167, 4-hydroxy-3,5-dimethyl-N-(2-methyl-2-((3-(trifluoromethyl)phenyl)sulfonyl)propyl)benzamide] | 1400

More lines, now with the values ahead:

IC50 [nM] | SMILES
1530 | CC(C)(CCNC(=O)c1cc(F)ccc1S(C)(=O)=O)S(=O)(=O)c1cccc(C(F)(F)F)c1 [Compound 194, 5-fluoro-N-(3-methyl-3-((3-(trifluoromethyl)phenyl)sulfonyl)butyl)-2-(methylsulfonyl)benzamide]
3160 | Cc1c(C(=O)NCCC(C)(C)S(=O)(=O)c2cccc(C(F)(F)F)c2)ncn(C(C)C)c1=O [Compound 215, 1-isopropyl-5-methyl-N-(3-methyl-3-((3-(trifluoromethyl)phenyl)sulfonyl)butyl)-6-oxo-1,6-dihydropyrimidine-4-carboxamide]
8930 | CC(C)(CCNC(=O)[C@@H]1C[C@@H](F)CN1)S(=O)(=O)c1cccc(C(F)(F)F)c1 [Compound 216, (2S,4R)-4-fluoro-N-(3-methyl-3-((3-(trifluoromethyl)phenyl)sulfonyl)butyl)pyrrolidine-2-carboxamide]
2250 | CC(C)(C)C(=O)Nc1ncccc1C(=O)NCC(C)(C)S(=O)(=O)c1cccc(C(F)(F)F)c1 [Compound 163, N-(2-methyl-2-((3-(trifluoromethyl)phenyl)sulfonyl)propyl)-2-pivalamidonicotinamide]
4660 | CC(C)(CNC(=O)c1cnc(C(F)(F)F)nc1)S(=O)(=O)c1cccc(C(F)(F)F)c1 [Compound 164, N-(2-methyl-2-((3-(trifluoromethyl)phenyl)sulfonyl)propyl)-2-(trifluoromethyl)pyrimidine-5-carboxamide]
2630 | CCOc1ncccc1C(=O)NCC(C)(C)S(=O)(=O)c1cccc(C(F)(F)F)c1 [Compound 162, 2-ethoxy-N-(2-methyl-2-((3-(trifluoromethyl)phenyl)sulfonyl)propyl)nicotinamide]
10200 | CNC(C)(C)C(=O)NCCC(C)(C)S(=O)(=O)c1cccc(C(F)(F)F)c1 [Compound 204, 2-methyl-N-(3-methyl-3-((3-(trifluoromethyl)phenyl)sulfonyl)butyl)-2-(methylamino)propanamide]
1560 | CC(C)(CCNC(=O)c1ccc(C(F)(F)F)nc1S(C)(=O)=O)S(=O)(=O)c1cccc(C(F)(F)F)c1 [Compound 183, N-(3-methyl-3-((3-(trifluoromethyl)phenyl)sulfonyl)butyl)-2-(methylsulfonyl)-6-(trifluoromethyl)nicotinamide]
3960 | CC(C)(CNC(=O)c1ccnc(Cl)c1)S(=O)(=O)c1cccc(C(F)(F)F)c1 [Compound 180, 2-chloro-N-(2-methyl-2-((3-(trifluoromethyl)phenyl)sulfonyl)propyl)isonicotinamide]
5370 | CC(C)(CNC(=O)c1ccc(F)cc1)S(=O)(=O)c1cccc(C(F)(F)F)c1 [Compound 157, 4-fluoro-N-(2-methyl-2-((3-(trifluoromethyl)phenyl)sulfonyl)propyl)benzamide]
1360 | Cc1ccc(C(=O)NCC(C)(C)S(=O)(=O)c2cccc(C(F)(F)F)c2)c(C)c1 [Compound 169, 2,4-dimethyl-N-(2-methyl-2-((3-(trifluoromethyl)phenyl)sulfonyl)propyl)benzamide]

Target: T2, CaV3.2 (Homo sapiens, UniProt O95180)
T2 construct: expressed in transfected cells; host or cells: unnamed doxycycline-inducible cell line
Assay: High-throughput CaV3.2/Kir2.3 T-type FLIPR fluorescent assay
Format: cell-based
Conditions: Table 4; Fluo-4 FLIPR; closed or inactivated state not stated
Protocol: Cells were plated in 384-well, clear-bottom, black-walled, poly-D-lysine coated plates (Becton Dickinson, Franklin Lake, N.J.) 2 days prior to use in the FLIPR assay. 100 µL of cells (1.2×10^6 cell/mL) containing doxycyline (Sigma-Aldrich, 1.5 μg/mL; to induce channel expression) were added to each well using a Multidrop (Thermo Scientific, Waltham, Mass.) and were maintained in 5% CO2 incubator at 37° C. On the morning of the assay, cells were transferred to a 5% CO2 incubator at 29° C.
Cells were washed with a wash buffer containing (in mM): 118 NaCl, 18.4 HEPES, 11.7 D-glucose, 2 CaCl2, 0.5 MgSO4, 4.7 KCl, and 1.2 KH2PO4, with the pH adjusted to 7.2 with
NaOH. 4.4 μM of the fluorescent indicator dye Fluo-4 (Invitrogen) prepared in pluronic acid (Sigma-Aldrich) was loaded into the wells and incubated for 45 minutes at 29° C. in 5% CO2. Cells were then rinsed with either a 2 mM KCl closed-state buffer (in mM: 138.5 NaCl, 10 HEPES, 10 D-glucose, 1 CaCl2, and 2 KCl, with the pH adjusted to 7.4 with NaOH) when performing the closed-state assay or 7.6 mM KCl inactivated-state buffer (in mM: 130.9 NaCl, 10 HEPES, 10 D-glucose, 1 CaCl2, and 7.6 mM KCl, with the pH adjusted to 7.4 with NaOH) when performing the inactivated-state assay. Concentration-dependent response curves were generated from 5 mM stock solutions prepared in DMSO (Sigma-Aldrich), diluted in either the 2 mM KCl buffer or 7.6 mM KCl buffer, and incubated for 20 minutes at 29° C. in 5% CO2. Calcium entry was evoked with an addition of either 12 mM KCl stimulation buffer (in mM: 128.5 NaCl, 10 HEPES, 10 D-glucose, 1 CaCl2, and 12 KCl, with the pH adjusted to 7.4 with NaOH) or 14.5 mM KCl stimulation buffer (in mM: 126 NaCl, 10 HEPES, 10 D-glucose, 1 CaCl2, and 14.5 KCl, with the pH adjusted to 7.4 with NaOH) for the closed-state or inactivated-state assay respectively. A change in the Fluo-4 fluorescence signal was assessed using FLIPR^TETRA™ instrument (Molecular Devices, Sunnyvale, Calif.) for 3 minutes following the elevation of extracellular KCl using an illumination wavelength of 470-495 nm with emissions recorded at 515-575 nm.
Concentration-dependent response curves were obtained by comparing the fluorescence signal in the presence of compound and fitted with a logistic function (1) to obtain the concentration that inhibited 50% (IC50) of the RLU signal using OriginPro v.7.5 software (OriginLab, Northampton, Mass.).
To assess the quality of the FLIPR assays the Z-factor (2) was used to quantify the suitability of the assay conditions using the following equation: […]
Data are expressed as mean and standard deviation (SD).

SMILES | IC50 [nM]
O=C(NCc1ccccc1S(=O)(=O)c1cccc(C(F)(F)F)c1)c1cn2cc(C(F)(F)F)ccc2n1 [Compound 51, 6-(trifluoromethyl)-N-(2-((3-(trifluoromethyl)phenyl)sulfonyl)benzyl)imidazo[1,2-a]pyridine-2-carboxamide] | 1050

Same assay, conditions: Table 5; Fluo-4 FLIPR; closed or inactivated state not stated

SMILES | IC50 [nM]
CC(C)(C(=O)NCc1cccnc1Oc1ccc(F)cc1)S(=O)(=O)c1cccc(C(F)(F)F)c1 [Compound 146, N-((2-(4-fluorophenoxy)pyridin-3-yl)methyl)-2-methyl-2-((3-(trifluoromethyl)phenyl)sulfonyl)propanamide] | 7210
